These results are taken from patent US11173162B2, “Bicyclic heterocycles as FGFR4 inhibitors” (Incyte Corporation, priority 2015, dated 2021).

The structures appear in SMILES notation.

This test deals with FGFR3 enzyme. As to the kind of experiment: FGFR Enzymatic Assay (FRET peptide phosphorylation), FGFR3. Type of test: biochemical. The following applies: IC50 ratio showing FGFR3 selectivity; Table 2A, pre-incubated for 4 hours. The method, then: The inhibitor potency of the exemplified compounds was measured in an enzyme assay that measures peptide phosphorylation using FRET measurements to detect product formation. Inhibitors were serially diluted in DMSO and a volume of 0.5 μL was transferred to the wells of a 384-well plate.
GraphPad prism3 was used to analyze the data.
For `COc1cc(OC)c(F)c(N2Cc3cnc(-c4cn(C)nc4C)cc3N(Cc3ccnc(C)c3)C2=O)c1F` [Example 68, 3-(2,6-difluoro-3,5-dimethoxyphenyl)-7-(1,3-dimethyl-1H-pyrazol-4-yl)-1-((2-methylpyridin-4-yl)methyl)-3,4-dihydropyrido[4,3-d]pyrimidin-2(1H)-one], the FGFR1/FGFR3 is above 5 and the FGFR4/FGFR3 was above 5.

On to `COc1cc(OC)c(F)c(N2Cc3cnc(-c4cn(C)nc4C)cc3N(Cc3ccncc3)C2=O)c1F` [Example 69, 3-(2,6-difluoro-3,5-dimethoxyphenyl)-7-(1,3-dimethyl-1H-pyrazol-4-yl)-1-(pyridin-4-ylmethyl)-3,4-dihydropyrido[4,3-d]pyrimidin-2(1H)-one], for which the FGFR1/FGFR3 is on record as above 5 and the FGFR4/FGFR3 is recorded as above 5.

In the case of `COc1cc(OC)c(F)c(N2Cc3cnc(-c4cn(C)nc4C)cc3N(c3cnccn3)C2=O)c1F` [Example 70, 3-(2,6-difluoro-3,5-dimethoxyphenyl)-7-(1,3-dimethyl-1H-pyrazol-4-yl)-1-(pyrazin-2-yl)-3,4-dihydropyrido[4,3-d]pyrimidin-2(1H)-one], the FGFR1/FGFR3 is reported as above 5 and the FGFR4/FGFR3 was above 5.

Take `COc1cc(OC)c(F)c(N2Cc3cnc(-c4cn(C)nc4C)cc3N(C3CCN(S(C)(=O)=O)CC3)C2=O)c1F` [Example 71, 3-(2,6-difluoro-3,5-dimethoxyphenyl)-7-(1,3-dimethyl-1H-pyrazol-4-yl)-1-(1-(methylsulfonyl)piperidin-4-yl)-3,4-dihydropyrido[4,3-d]pyrimidin-2(1H)-one]: the FGFR1/FGFR3 is reported as above 5 and the FGFR4/FGFR3 is above 3.

For `COc1cc(OC)c(F)c(N2Cc3cnc(-c4cn(C)nc4C)cc3N(Cc3cnn(C)c3)C2=O)c1F` [Example 72, 3-(2,6-difluoro-3,5-dimethoxyphenyl)-7-(1,3-dimethyl-1H-pyrazol-4-yl)-1-((1-methyl-1H-pyrazol-4-yl)methyl)-3,4-dihydropyrido[4,3-d]pyrimidin-2(1H)-one], the FGFR1/FGFR3 is above 5 and the FGFR4/FGFR3 is listed as above 10.

`COc1cc(OC)c(F)c(N2Cc3cnc(-c4cn(C)nc4C)cc3N(Cc3ccc(F)c(F)c3)C2=O)c1F` [Example 73, 3-(2,6-difluoro-3,5-dimethoxyphenyl)-1-(3,4-difluorobenzyl)-7-(1,3-dimethyl-1H-pyrazol-4-yl)-3,4-dihydropyrido[4,3-d]pyrimidin-2(1H)-one]: the FGFR1/FGFR3 was above 5 and the FGFR4/FGFR3 was above 10.

For the compound `COc1cc(OC)c(F)c(N2Cc3cnc(-c4cn(C)nc4C)cc3N(Cc3ccc(C#N)nc3)C2=O)c1F` [Example 74, 5-((3-(2,6-difluoro-3,5-dimethoxyphenyl)-7-(1,3-dimethyl-1H-pyrazol-4-yl)-2-oxo-3,4-dihydropyrido[4,3-d]pyrimidin-1(2H)-yl)methyl)picolinonitrile], the FGFR1/FGFR3 was above 5 and the FGFR4/FGFR3 is listed as above 5.

For the compound `COc1cc(OC)c(F)c(N2Cc3cnc(-c4cn(C)nc4C)cc3N(c3ccc4nc(C)oc4c3)C2=O)c1F` [Example 75, 3-(2,6-difluoro-3,5-dimethoxyphenyl)-7-(1,3-dimethyl-1H-pyrazol-4-yl)-1-(2-methylbenzo[d]oxazol-6-yl)-3,4-dihydropyrido[4,3-d]pyrimidin-2(1H)-one], the FGFR1/FGFR3 is given as above 5 and the FGFR4/FGFR3 is recorded as above 3.

Consider `COc1cc(OC)c(F)c(N2Cc3cnc(-c4cn(C)nc4C)cc3N(c3ccc(-n4cccn4)cc3)C2=O)c1F` [Example 77, 1-(4-(1H-pyrazol-1-yl)phenyl)-3-(2,6-difluoro-3,5-dimethoxyphenyl)-7-(1,3-dimethyl-1H-pyrazol-4-yl)-3,4-dihydropyrido[4,3-d]pyrimidin-2(1H)-one], for which the FGFR1/FGFR3 is recorded as above 5 and the FGFR4/FGFR3 was above 10.

`COc1cc(OC)c(F)c(N2Cc3cnc(-c4cn(C)nc4C)cc3N(c3cc(F)cc(C#N)c3)C2=O)c1F` [Example 78, 3-(3-(2,6-difluoro-3,5-dimethoxyphenyl)-7-(1,3-dimethyl-1H-pyrazol-4-yl)-2-oxo-3,4-dihydropyrido[4,3-d]pyrimidin-1(2H)-yl)-5-fluorobenzonitrile]: the FGFR1/FGFR3 is above 5 and the FGFR4/FGFR3 was above 3.

As to `COc1cc(OC)c(F)c(N2Cc3cnc(-c4cn(C)nc4C)cc3N(c3ccc(C#N)cn3)C2=O)c1F` [Example 79, 6-(3-(2,6-difluoro-3,5-dimethoxyphenyl)-7-(1,3-dimethyl-1H-pyrazol-4-yl)-2-oxo-3,4-dihydropyrido[4,3-d]pyrimidin-1(2H)-yl)nicotinonitrile], the FGFR1/FGFR3 is on record as above 5 and the FGFR4/FGFR3 is given as above 3.

As for `COc1cc(N2C(=O)N(c3c(F)c(OC)cc(OC)c3F)Cc3cnc(-c4cn(C)nc4C)cc32)ccc1C#N` [Example 81, 4-(3-(2,6-difluoro-3,5-dimethoxyphenyl)-7-(1,3-dimethyl-1H-pyrazol-4-yl)-2-oxo-3,4-dihydropyrido[4,3-d]pyrimidin-1(2H)-yl)-2-methoxybenzonitrile], the FGFR1/FGFR3 is listed as above 5 and the FGFR4/FGFR3 is above 10.

For `COc1cc(OC)c(F)c(N2Cc3cnc(-c4cn(C)nc4C)cc3N(C3CC3)C2=O)c1F` [Example 83, 1-cyclopropyl-3-(2,6-difluoro-3,5-dimethoxyphenyl)-7-(1,3-dimethyl-1H-pyrazol-4-yl)-3,4-dihydropyrido[4,3-d]pyrimidin-2(1H)-one], the FGFR1/FGFR3 is listed as above 5 and the FGFR4/FGFR3 is recorded as above 5.

On to `COc1cc(OC)c(F)c(N2Cc3cnc(-c4cn(C)nc4C)cc3N(Cc3cncnc3)C2=O)c1F` [Example 84, 3-(2,6-difluoro-3,5-dimethoxyphenyl)-7-(1,3-dimethyl-1H-pyrazol-4-yl)-1-(pyrimidin-5-ylmethyl)-3,4-dihydropyrido[4,3-d]pyrimidin-2(1H)-one], for which the FGFR1/FGFR3 is given as above 5 and the FGFR4/FGFR3 is listed as above 5.

`COc1cc(OC)c(F)c(N2Cc3cnc(-c4cn(C)nc4C)cc3N(Cc3cnccn3)C2=O)c1F` [Example 85, 3-(2,6-difluoro-3,5-dimethoxyphenyl)-7-(1,3-dimethyl-1H-pyrazol-4-yl)-1-(pyrazin-2-ylmethyl)-3,4-dihydropyrido[4,3-d]pyrimidin-2(1H)-one]: the FGFR1/FGFR3 is above 5 and the FGFR4/FGFR3 is above 10.

Consider `COc1cc(OC)c(F)c(N2Cc3cnc(-c4cn(C)nc4C)cc3N(c3cccnc3)C2=O)c1F` [Example 86, 3-(2,6-difluoro-3,5-dimethoxyphenyl)-7-(1,3-dimethyl-1H-pyrazol-4-yl)-1-(pyridin-3-yl)-3,4-dihydropyrido[4,3-d]pyrimidin-2(1H)-one], for which the FGFR1/FGFR3 was above 5 and the FGFR4/FGFR3 is above 10.

`COc1cc(OC)c(F)c(N2Cc3cnc(-c4cn(C)nc4C)cc3N(c3cncc(C)n3)C2=O)c1F` [Example 87, 3-(2,6-difluoro-3,5-dimethoxyphenyl)-7-(1,3-dimethyl-1H-pyrazol-4-yl)-1-(6-methylpyrazin-2-yl)-3,4-dihydropyrido[4,3-d]pyrimidin-2(1H)-one]: the FGFR1/FGFR3 is reported as above 5 and the FGFR4/FGFR3 is reported as above 10.

On to `COc1cc(OC)c(F)c(N2Cc3cnc(-c4cn(C)nc4C)cc3N(Cc3cccnn3)C2=O)c1F` [Example 88, 3-(2,6-difluoro-3,5-dimethoxyphenyl)-7-(1,3-dimethyl-1H-pyrazol-4-yl)-1-(pyridazin-3-ylmethyl)-3,4-dihydropyrido[4,3-d]pyrimidin-2(1H)-one], for which the FGFR1/FGFR3 was above 5 and the FGFR4/FGFR3 was above 10.

Take `COc1cc(OC)c(F)c(N2Cc3cnc(-c4cn(C)nc4C)cc3N(c3cccc(-c4cnnn4C)c3)C2=O)c1F` [Example 89, 3-(2,6-difluoro-3,5-dimethoxyphenyl)-7-(1,3-dimethyl-1H-pyrazol-4-yl)-1-(3-(1-methyl-1H-1,2,3-triazol-5-yl)phenyl)-3,4-dihydropyrido[4,3-d]pyrimidin-2(1H)-one]: the FGFR1/FGFR3 is above 5 and the FGFR4/FGFR3 is above 10.

For the compound `COc1cc(OC)c(F)c(N2Cc3cnc(-c4cn(C)nc4C)cc3N(C(C)C)C2=O)c1F` [Example 90, 3-(2,6-difluoro-3,5-dimethoxyphenyl)-7-(1,3-dimethyl-1H-pyrazol-4-yl)-1-isopropyl-3,4-dihydropyrido[4,3-d]pyrimidin-2(1H)-one], the FGFR1/FGFR3 is above 5 and the FGFR4/FGFR3 is recorded as above 5.

As to `COc1cc(OC)c(F)c(N2Cc3cnc(-c4cn(C)nc4C)cc3N(C3(C#N)CC3)C2=O)c1F` [Example 91, 1-(3-(2,6-difluoro-3,5-dimethoxyphenyl)-7-(1,3-dimethyl-1H-pyrazol-4-yl)-2-oxo-3,4-dihydropyrido[4,3-d]pyrimidin-1(2H)-yl)cyclopropanecarbonitrile], the FGFR1/FGFR3 is recorded as above 5 and the FGFR4/FGFR3 is recorded as above 5.

As for `COc1cc(OC)c(F)c(N2Cc3cnc(-c4cn(C)nc4C)cc3N(Cc3cc(C(C)C)on3)C2=O)c1F` [Example 93, 3-(2,6-difluoro-3,5-dimethoxyphenyl)-7-(1,3-dimethyl-1H-pyrazol-4-yl)-1-((5-isopropylisoxazol-3-yl)methyl)-3,4-dihydropyrido[4,3-d]pyrimidin-2(1H)-one], the FGFR1/FGFR3 is on record as above 5 and the FGFR4/FGFR3 is recorded as above 5.

In the case of `COc1cc(OC)c(F)c(N2Cc3cnc(-c4cn(C)nc4C)cc3N(Cc3ccccn3)C2=O)c1F` [Example 94, 3-(2,6-difluoro-3,5-dimethoxyphenyl)-7-(1,3-dimethyl-1H-pyrazol-4-yl)-1-(pyridin-2-ylmethyl)-3,4-dihydropyrido[4,3-d]pyrimidin-2(1H)-one], the FGFR1/FGFR3 is on record as above 5 and the FGFR4/FGFR3 is recorded as above 10.

For the compound `COc1cc(OC)c(F)c(N2Cc3cnc(-c4cn(C)nc4C)cc3N(Cc3csc(C)n3)C2=O)c1F` [Example 95, 3-(2,6-difluoro-3,5-dimethoxyphenyl)-7-(1,3-dimethyl-1H-pyrazol-4-yl)-1-((2-methylthiazol-4-yl)methyl)-3,4-dihydropyrido[4,3-d]pyrimidin-2(1H)-one], the FGFR1/FGFR3 was above 5 and the FGFR4/FGFR3 is on record as above 10.
